According to patent publication US5593988A, “Therapeutic agent for osteoporosis and diazepine compound” (Yoshitomi Pharmaceutical Industries, Ltd., priority 1991, dated 1997):

The compounds below were run on bone resorption (parietal bone) (assay: Bone resorption-inhibitory activity (45Ca release from newborn mouse parietal bone, hPTH (1-34) stimulated, method of Raisz)). Settings: 20 μM, Table 21, average of four pairs, read-out: bone resorption-inhibitory action, % against control.
Format: cell-based, ICR mouse
Excerpt: The method for determining the bone resorption-inhibitory activity of the Compound (I) and the results are shown in the following.
Bone resorption-inhibitory activity
The determination of the bone resorption-inhibitory activity basically followed the method of Raisz [J. Clin. Invest., vol. 44, pp. 103-116 (1965)].
A 1-2 days old new born ICR mouse was intraperitoneally administered with 1.5μ Ci ^45 Ca (CaCl2 solution of isotope of calcium) and parietal bone was asceptically removed the next day. The parietal bone was split into two along the central sature line and one of them was used as a control and the other was used for the experiment. The bone was preincubated in 0.5 ml of a BGJb medium (Fitton-Jackson modification, GIBCO Laboratories, U.S.A.) added with the test compound to a concentration of 5 μM or 20 μM and bovine serum albumin (1 mg/ml) at 37° C. for 2 days, and further incubated in the aforementioned medium containing 50 nM hPTH (1-34) for 3 days. After the incubation, the radioactivity of ^45 Ca in the medium and in the bone was measured and the ratio (%) of ^45 Ca released from the bone into the medium was calculated. [formula]
Using the bone obtained from the same mouse and treated in the same manner without the test compound as a control, the ratio (%) against the control was calculated according to the following equation. [formula]
The average of these values obtained from four pairs from each group was calculated.

Compared with `CCCCCCCCCCCc1nnc2n1-c1ccccc1C(c1ccc(Cl)cc1)NC2` (stereo not shown) [compound 515], `CCCCCCCCCCCc1nnc2n1-c1ccccc1C(c1ccc(Cl)cc1)OC2` (stereo not shown) [compound 516] is lower in inhibition at 20 µM: 29.9% for the first, 22.4% for the second.

Same assay, conditions: read-out: IC50 (figures in parentheses), bone resorption-inhibitory action

With `COc1ccccc1NC(=O)NC1N=C(c2ccccc2)c2cc(Cl)ccc2-n2c(C)nnc21` (stereo not shown) [compound 532] the IC50 was 930 nM.

Same assay, conditions: read-out: bone resorption-inhibitory action, % against control

First: Cc1nnc2n1-c1ccccc1C(c1ccc(Cl)cc1)=NC2Cc1c[nH]c2ccccc12 (stereo not shown) [compound 508]
Second: Cc1nnc2n1-c1ccccc1C(c1ccc(Cl)cc1)=NC2NC(=O)NC(=O)c1ccccc1 (stereo not shown) [compound 525]
The inhibition at 20 µM of the first is higher: 48.1% for the first, 26.8% for the second.

Compared with `COc1ccccc1NC(=O)OCC1N=C(c2ccccc2)c2ccccc2-n2c(C)nnc21` (stereo not shown) [compound 509], `Cc1cccc(NC(=O)OCC2N=C(c3ccccc3)c3ccccc3-n3c(C)nnc32)c1` (stereo not shown) [compound 510] is lower in inhibition at 20 µM: 35% for the first, 28.3% for the second.

Compared with `Cc1nnc2n1-c1ccccc1C(c1ccccc1)=NC2COC(=O)Cc1ccccc1` (stereo not shown) [compound 511], `Cc1ccc(S(=O)(=O)OCC2N=C(c3ccccc3)c3ccccc3-n3c(C)nnc32)cc1` (stereo not shown) [compound 518] is higher in inhibition at 20 µM: 37.7% for the first, 45.4% for the second.

First: CCCCCCCCCCCc1nnc2n1-c1ccccc1C(c1ccc(Cl)cc1)=NC2 [compound 513]
Second: CC(C)Cc1ccc(CCc2nnc3n2-c2ccccc2C(c2ccc(Cl)cc2)=NC3)cc1 [compound 517]
The inhibition at 20 µM of the first is lower: 43.3% for the first, 47.3% for the second.

First: CCCCCCCCCCc1ccc2c(c1)C(c1ccccc1)=NC(C)c1nnc(C)n1-2 (stereo not shown) [compound 519]
Second: CCCCCCCCCCc1ccc2c(c1)-n1c(C)nnc1C(C)N=C2c1ccccc1 (stereo not shown) [compound 520]
The inhibition at 20 µM of the first is lower: 21.1% for the first, 22.5% for the second.

First: Cc1cccc(NC(=O)NC2N=C(c3cccs3)c3ccccc3-n3c(C)nnc32)c1 (stereo not shown) [compound 521]
Second: Cc1nnc2n1-c1ccccc1C(c1ccc(Cl)cc1)=NC2NC(=O)Nc1cccnc1 (stereo not shown) [compound 523]
The inhibition at 20 µM of the first is higher: 29.6% for the first, 26.7% for the second.

Compared with `Cc1nnc2n1-c1ccccc1C(c1ccc(Cl)cc1)=NC2NC(=O)Nc1ccccn1` (stereo not shown) [compound 522], `Cc1nnc2n1-c1ccccc1C(c1ccc(Cl)cc1)=NC2NC(=O)C(=O)Nc1ccccc1` (stereo not shown) [compound 530] is lower in inhibition at 20 µM: 32.8% for the first, 28.2% for the second.

First: Cc1cccc(N2C(=O)NC3(N=C(c4ccc(Cl)cc4)c4ccccc4-n4c(C)nnc43)C2=O)c1 (stereo not shown) [compound 531]
Second: COc1ccccc1NC(=O)NC1N=C(c2ccccc2)c2cc(Cl)ccc2-n2c(C)nnc21 (stereo not shown) [compound 532]
The inhibition at 20 µM of the first is higher: 34.4% for the first, 28.1% for the second.
